We go through 104 compounds from PubChem BioAssay AID1996.

Values after ≈ are worked out from the molar mass of the structure shown.

The conditions of this data set: buffer; pH 7.4; 200.0 µM.
In the case of `COc1ccc(/C=C2/C(=O)ON=C2C)cc1Br`, the kinetic solubility was 14 µg/mL (≈ 47.3 µM).

In turn, `CCOC(=S)SCC(=O)Nc1ncc(C)s1` gave a kinetic solubility of 40.1 µg/mL (≈ 145 µM).

In turn, `COc1ccc(CN2CCSCC2)c(C)c1C` had a kinetic solubility of 5.7 µg/mL (≈ 22.7 µM). For the compound `CCC(C)NC(=O)CN1C(=O)NC2(CCOc3ccccc32)C1=O` (centres undefined), the kinetic solubility was more than 49.7 µg/mL. For the compound `CC(=O)c1c(-c2ccccc2)c2cc(Cl)ccc2n(C)c1=O`, the solubility (kinetic) is 38.8 µg/mL (≈ 124 µM).

`c1ccc(-c2cnc(CN3CCN(c4ccccc4)CC3)o2)cc1`: the kinetic solubility amounted to 40 µg/mL (≈ 125 µM).

Compound `Oc1[nH]c2ccccc2c1C=Nc1ccccc1` showed a kinetic solubility of 0.7 µg/mL (≈ 2.96 µM). Compound `Cc1nc2ccccc2n1CC(=O)NC1CCCCCC1` came in with a solubility (kinetic) of more than 42.8 µg/mL. The figure for `CCc1ccc(N2CN(Cc3ccco3)CNC2=S)cc1` is 11.9 µg/mL (≈ 39.5 µM); for `Cc1c(C(=O)NCc2ccccc2F)oc2ccccc12` it is 1.5 µg/mL (≈ 5.29 µM). `Cc1ccc(/C(N)=N/OC(=O)CCCc2ccccc2)cc1` gave a solubility (kinetic) of 2 µg/mL (≈ 6.75 µM). Turning to `C=CCn1c(C(C)(C)C)nc2ccccc21`, the solubility (kinetic) is 24.6 µg/mL (≈ 115 µM). `CCCCc1cc(C)c(S(=O)(=O)c2ccccc2C)c(=O)[nH]1` registered a solubility (kinetic) of 3.8 µg/mL (≈ 11.9 µM). For the compound `CCN(Cc1ccccc1)C(=O)c1ccc(Cl)cc1[N+](=O)[O-]`, the solubility (kinetic) was 44.5 µg/mL (≈ 140 µM). `COc1cc(C(=O)O)nc(OC)n1` returned a solubility (kinetic) of more than 27.6 µg/mL. Under `Cc1ccc(C)c(NC(=O)COC(=O)c2ccc[n+]([O-])c2)c1` stands more than 45 µg/mL.

`O=S(=O)(Nc1ncccn1)c1cc(Cl)ccc1Cl` registered a kinetic solubility of more than 45.6 µg/mL.

For the compound `CCOc1ccc(C(=O)NCCN2CCOCC2)cc1`, the solubility (kinetic) was more than 41.8 µg/mL. `O=C(CN1C(=O)C(=O)N(C2CCCC2)C1=O)Nc1cc(Cl)ccc1[N+](=O)[O-]` yielded a solubility (kinetic) of 26.6 µg/mL (≈ 67.4 µM). With `Cc1c(NC(=O)c2ccc(NS(=O)(=O)c3ccc(F)c(F)c3)cc2)c(=O)n(-c2ccccc2)n1C`, the solubility (kinetic) was more than 74.8 µg/mL.

As for `CC(=O)c1cccc(NC(=O)Nc2ccc3c(c2)OCO3)c1`, the solubility (kinetic) was found to be 3.1 µg/mL (≈ 10.4 µM). The figure for `CN(C1CCCCC1)S(=O)(=O)c1cn(C)c(=O)n(C)c1=O` is more than 47.3 µg/mL; for `C/C(O)=C(\C#N)P(=O)(c1ccccc1)c1ccccc1` it is more than 42.5 µg/mL. With `Cc1ccc(OCC(O)CN2CCCC2)cc1` (centres undefined), the kinetic solubility was more than 35.3 µg/mL. `CCOc1cc(S(=O)(=O)Nc2ccncc2)ccc1F` displayed a kinetic solubility of more than 44.4 µg/mL. Turning to `CCN1CCN(c2ccc(N=Cc3ccccc3O)cc2)CC1`, the kinetic solubility worked out at 40.7 µg/mL (≈ 132 µM). Under `Nc1cc(=O)[nH]c(SCC(=O)Nc2cccnc2Cl)n1` stands more than 46.8 µg/mL; under `Cc1ccnc(NC(=O)CCCc2c[nH]c3ccccc23)c1`, 4.3 µg/mL (≈ 14.7 µM); under `CN(C(=O)CSc1nc2ccccc2c(=O)n1-c1ccc(F)cc1F)C1CCS(=O)(=O)C1` (centres undefined), more than 71.9 µg/mL. The compound `Nc1nc2c(Cl)ccc(Cl)c2s1` yielded a kinetic solubility of 3.2 µg/mL (≈ 14.6 µM). Turning to `CCn1c(C)nnc1SCC(=O)Nc1ccccc1Cl`, the kinetic solubility was more than 46.6 µg/mL.

`Cc1cccnc1NC(=O)CCNC(=O)c1ccc(Cl)cc1` gave a kinetic solubility of more than 47.7 µg/mL. Consider `O=C(Nc1ccccc1)Oc1ccccc1N1CCOCC1`, for which the kinetic solubility came out at 31.9 µg/mL (≈ 107 µM). `CN(C1CCCCC1)S(=O)(=O)c1ccc(=S)[nH]c1` came in with a solubility (kinetic) of 22.8 µg/mL (≈ 79.6 µM). `Cc1ccc(NC(=O)CN(CCc2ccccc2)S(C)(=O)=O)cc1`: the kinetic solubility was 51.6 µg/mL (≈ 149 µM).

In the case of `CC(=O)Nc1ccc(Nc2ncnc3ccccc23)cc1`, the solubility (kinetic) was 6.5 µg/mL (≈ 23.4 µM). For `O=c1c2[nH]cnc2n(-c2cccc(F)c2)c(=O)n1Cc1ccccc1`, the solubility (kinetic) was more than 50.4 µg/mL. Consider `O=C(O)CSCC(=O)N1CCN(Cc2ccc3c(c2)OCO3)CC1`, for which the kinetic solubility is more than 52.9 µg/mL.

With `CCc1cc(=O)[nH]c(SC/C=C/c2ccccc2)n1`, the solubility (kinetic) was determined as 10.7 µg/mL (≈ 39.3 µM).

Turning to `O=[N+]([O-])c1cccc(NC(=S)N2CCN(c3ccccn3)CC2)c1`, the kinetic solubility stood at 1.2 µg/mL (≈ 3.49 µM). Take `Cc1cccc(N(Cc2ccccc2)C(=O)CCl)c1`: the kinetic solubility was more than 41.1 µg/mL.

`O=S(=O)(NCc1cccs1)c1ccccc1Cl` came in with a solubility (kinetic) of more than 43.2 µg/mL. Under `COC(=O)c1cccnc1Oc1ccccc1` stands 26.5 µg/mL (≈ 116 µM); under `O=C(NC1CCN(Cc2ccccc2)CC1)c1ccccc1Cl`, 35.7 µg/mL (≈ 109 µM); under `Cc1cc(C)c(C)c(OCC(=O)O/N=C(\N)c2cccnc2)c1`, 2.5 µg/mL (≈ 7.98 µM).

Consider `CCOC(=O)Cc1nc(-c2cccc(C(F)(F)F)c2)no1`, for which the kinetic solubility came to 7.6 µg/mL (≈ 25.3 µM). As for `Cc1cc(N2CCN(C(=O)Nc3ccc(F)cc3F)CC2)c2ccccc2n1`, the kinetic solubility was more than 57.4 µg/mL. In the case of `CC1CN(C(=O)COC(=O)c2ccccc2O)CC(C)O1` (centres undefined), the solubility (kinetic) was 40.1 µg/mL (≈ 137 µM). Take `O=C(c1ccc(Br)s1)N1CCc2ccccc2C1`: the solubility (kinetic) turned out to be 19.8 µg/mL (≈ 61.4 µM). The figure for `O=[N+]([O-])c1ccc(S(=O)(=O)c2cccc(C(F)(F)F)c2)nc1` is 4.4 µg/mL (≈ 13.2 µM); for `COc1ccc(C(=O)OCC(=O)Nc2c(C)cccc2C)cc1` it is less than 0.7 µg/mL.

Consider `COc1ccc2[nH]cc(C(=O)C(=O)N3CCCCC3)c2c1`, for which the kinetic solubility was more than 42.9 µg/mL.

Compound `O=C(NCCN1CCOCC1)C1CC(=O)N(c2ccc(Cl)cc2)C1` (centres undefined) showed a kinetic solubility of more than 52.8 µg/mL. Under `O=C(/C=C/c1ccccc1)NCc1ccco1` stands more than 34.1 µg/mL. `CCOc1ccccc1NC(=O)NC(C)c1ccc2c(c1)OCO2` (centres undefined) had a solubility (kinetic) of 3.4 µg/mL (≈ 10.4 µM). `CC(NC(=O)CN1CCN(C(=O)c2cccs2)CC1)c1ccc(F)cc1F` (centres undefined): the kinetic solubility was more than 59 µg/mL. Regarding `COc1ccc(Nc2ccc(C(F)(F)F)cc2[N+](=O)[O-])cn1`, the solubility (kinetic) was 1.8 µg/mL (≈ 5.75 µM). As to `O=C(CSc1nc2ncc(Cl)cc2[nH]1)N1CCOCC1`, the solubility (kinetic) was more than 46.9 µg/mL. Compound `O=C(COC(=O)c1cc(=O)[nH]c2ccccc12)NCc1ccccc1Cl` registered a solubility (kinetic) of 4.1 µg/mL (≈ 11.1 µM). `Cc1ccc(SCCC(=O)OC(C(=O)NC(N)=O)C(C)C)cc1` (centres undefined) showed a solubility (kinetic) of 7 µg/mL (≈ 20.7 µM). Compound `COc1ccccc1NC(=O)NC1CCCc2ccccc21` (centres undefined) returned a solubility (kinetic) of 0.8 µg/mL (≈ 2.7 µM). Turning to `COc1ccc(CCNCc2ccc(C)s2)cc1OC.Cl`, the kinetic solubility was more than 49.2 µg/mL. With `Cc1ccc2c(Cl)cc(Cl)c(OCC(=O)NC(C)(C)C)c2n1`, the solubility (kinetic) is 10 µg/mL (≈ 29.3 µM).

In turn, `COc1ccc(C(=O)Nc2ccc(C3CC3(Cl)Cl)cc2)cc1` (centres undefined) registered a solubility (kinetic) of less than 0.7 µg/mL. Take `COc1ccc(C2C(C#N)=C(C)NC(C)=C2C#N)c(OC)c1`: the kinetic solubility worked out at 4.6 µg/mL (≈ 15.6 µM). In the case of `Cc1nc2ccccc2c(=O)n1-c1ccc(Cl)cc1[N+](=O)[O-]`, the kinetic solubility is 7.2 µg/mL (≈ 22.8 µM). As to `Cn1c(-c2ccc(Cl)nc2)nc2cc(Cl)ccc21`, the kinetic solubility came to 6.6 µg/mL (≈ 23.7 µM).

Turning to `CCN(CC)CC(=O)Nc1scc2c1c(=O)oc1ccccc12`, the solubility (kinetic) is less than 0.4 µg/mL.

On to `CC(=O)N[C@@H](Cc1ccc(OC(F)(F)F)cc1)C(=O)O`, for which the kinetic solubility was more than 43.7 µg/mL. In turn, `CC(=O)Nc1nnc(S(N)(=O)=O)s1` yielded a kinetic solubility of more than 33.3 µg/mL.

On to `CC12CCC(C1)C(C)(C)C2NS(=O)(=O)c1ccc(F)cc1` (centres undefined), for which the solubility (kinetic) amounted to 6.9 µg/mL (≈ 22.2 µM). Under `COc1ccc(N/N=C(\C#N)C(=N)N2CCOCC2)cc1` stands more than 43.1 µg/mL. `COc1ccc([N+](=O)[O-])cc1NC(=O)C(C)OC(=O)Cc1ccc(OC)c(OC)c1` (centres undefined) yielded a kinetic solubility of 31.1 µg/mL (≈ 74.3 µM). For the compound `COc1ccc(CC(=O)NCc2ccccc2)cc1`, the solubility (kinetic) was 22.6 µg/mL (≈ 88.5 µM). As to `Cc1cc(NC(=O)c2ccc(NC(=O)C3CC3)cc2)no1`, the solubility (kinetic) was 8.8 µg/mL (≈ 30.8 µM). `COC(=O)C1Cc2c([nH]c3ccccc23)C(C(C)C)N1` (centres undefined) displayed a solubility (kinetic) of 33.4 µg/mL (≈ 123 µM). The figure for `Cc1nc2ccccn2c(=O)c1NC(=O)c1cccs1` is more than 42.8 µg/mL. With `CCOC(=O)Cc1csc(NC(=O)c2ccc(Cl)s2)n1`, the solubility (kinetic) turned out to be 13.1 µg/mL (≈ 39.6 µM).

In turn, `CN1C(=O)CSC1=Nc1cccc(C(=O)O)c1` displayed a kinetic solubility of more than 37.5 µg/mL. The compound `O=C(c1ccccc1)c1ccc(OCC(O)CN2CCCC2)cc1` (centres undefined) had a solubility (kinetic) of more than 48.8 µg/mL.

Turning to `Cc1ccccc1OCC(O)CN1C(=O)c2ccccc2C1=O` (centres undefined), the kinetic solubility was found to be 41.7 µg/mL (≈ 134 µM). `Cc1c(C(=O)NC2CCCCC2C)oc2ccccc12` (centres undefined) had a solubility (kinetic) of 1.7 µg/mL (≈ 6.26 µM). Compound `COc1ccc(-n2ncc3c(=O)n(CC(C)=O)cnc32)cc1` registered a kinetic solubility of more than 44.7 µg/mL. In turn, `CC(C)CNS(=O)(=O)c1ccc(CCC(=O)NC2CCCCC2)cc1` yielded a solubility (kinetic) of 10.5 µg/mL (≈ 28.6 µM).

Consider `COc1cc2ncnc(Nc3ccc4c(c3)OCO4)c2cc1OC`, for which the kinetic solubility was found to be 10.1 µg/mL (≈ 31 µM). The compound `Cc1ccccc1OCC(=O)Nc1ccccc1-c1ccccc1` displayed a kinetic solubility of less than 0.7 µg/mL. With `O=[N+]([O-])c1ccc(CNc2ccc(Cl)cc2)s1`, the solubility (kinetic) worked out at 6.5 µg/mL (≈ 24.2 µM).

`Cc1noc(C)c1C(=O)N1CCC(C(=O)c2ccccc2)CC1` gave a solubility (kinetic) of 41.8 µg/mL (≈ 134 µM). The figure for `Cc1ccc(C(=O)CCC(=O)Nc2ccc(C)cn2)cc1` is 3.4 µg/mL (≈ 12 µM); for `Cc1ccc(C2CCN(C(=S)NC3CCCCC3)C2)cc1` (centres undefined) it is 1.3 µg/mL (≈ 4.3 µM); for `COc1ccc(NC(=O)C(Cc2cc(C)cc(C)c2)C(C)C(=O)O)cc1` (centres undefined) it is 36.5 µg/mL (≈ 103 µM). The figure for `Cc1ccc(CCC(=O)Nc2ccc([N+](=O)[O-])cc2Cl)o1` is 7.5 µg/mL (≈ 24.3 µM); for `CCc1nc2ccccc2n1CC(=O)Nc1cc(C)on1` it is more than 42.6 µg/mL; for `Cc1ccc(C)c(OC(C)C(=O)Nc2nccs2)c1` (centres undefined) it is 32.8 µg/mL (≈ 119 µM). Consider `CC(CN1C(C)CCCC1C)OC(=O)c1ccc(F)cc1.Cl` (centres undefined), for which the solubility (kinetic) was 46.5 µg/mL. For the compound `COc1ccc(CC(=O)OCC(=O)NC2CC2)cc1`, the kinetic solubility was more than 39.5 µg/mL. The figure for `O=C(Nc1cccc(NC(=O)c2ccco2)n1)c1ccco1` is 6.1 µg/mL (≈ 20.5 µM).

The compound `CN(c1ccccc1)S(=O)(=O)c1cccc(NC(=O)CCNC(=O)c2ccc([N+](=O)[O-])cc2)c1` registered a solubility (kinetic) of 13 µg/mL (≈ 26.9 µM). Turning to `Cc1ccc(NC(=O)CN(C)C(=S)NC2CC2)cc1`, the solubility (kinetic) is more than 41.6 µg/mL. The compound `CC1CC(C)CN(CC(O)COC2CC(C)CC(C)(C)C2)C1.Cl` (centres undefined) displayed a solubility (kinetic) of 47.9 µg/mL.

The compound `CSc1ccccc1-c1nc(-c2ccncc2)no1` registered a solubility (kinetic) of 1.2 µg/mL (≈ 4.46 µM). In the case of `CCCCOc1ccc(C(=O)NCCc2ccccc2)cc1`, the solubility (kinetic) was less than 0.6 µg/mL.

Take `O=C(CNS(=O)(=O)c1ccccc1)NCC(=O)N1CCCCC1`: the solubility (kinetic) is more than 50.9 µg/mL. In the case of `O=C(Cc1c(F)cccc1Cl)NCCc1c[nH]c2ccccc12`, the solubility (kinetic) worked out at 4.8 µg/mL (≈ 14.5 µM).
